Legend:
[1] = Reconstitution stability (maleimide hydrolysis, loss of API) in reconstitution buffer; format: physicochemical; conditions: for stability of the reconstituted drug (maleimide hydrolysis and loss of API): 50 mM sodium phosphate buffer pH 7.6, 5% sucrose, 2-HPβCD, room temperature, 240 minutes; for maleimide hydrolyzed: after 4 hours incubation at room temperature in reconstitution buffer (50 mM sodium phosphate pH 7.65 containing 4% HPβCD and 5% sucrose)
Description: (§1) The albumin-binding AE-Keto drug derivatives were reconstituted in 50 mM sodium phosphate buffer pH 7.6 which contained 5% sucrose (w/v) and 2% 2-hydroxypropyl-β-cyclodextrin (2-HPβCD). Both drugs were reconstituted at a concentration of 1277 μM (equal to 4.5 mg/kg murine xenograft dose), the dissolution of both drugs was confirmed by HPLC (method 2, 254 nm). Stability of the reconstituted drugs was monitored by HPLC at room temperature every 15 minutes over a period of 240 minutes for maleimide hydrolysis and loss of API.
as §1, with “AE-Ester” for “AE-Keto drug”, “4% 2-HPβCD.” for “2% 2-hydroxypropyl-β-cyclodextrin (2-HPβCD).”, “655” for “1277”, “2.4” for “4.5”, “310” for “254”

albumin in human plasma = target: T1, albumin in human plasma (Homo sapiens, UniProt P02768); experiment: Binding kinetics to albumin in human plasma; format: in vitro ADME; conditions: 37° C.
T1 construct: the plasma was separated from the red blood cells by spinning it down for 3 minutes at 3000 RPM; from tissue; host or cells: fresh plasma of a healthy human volunteer
T1 sequence (P02768 25-609): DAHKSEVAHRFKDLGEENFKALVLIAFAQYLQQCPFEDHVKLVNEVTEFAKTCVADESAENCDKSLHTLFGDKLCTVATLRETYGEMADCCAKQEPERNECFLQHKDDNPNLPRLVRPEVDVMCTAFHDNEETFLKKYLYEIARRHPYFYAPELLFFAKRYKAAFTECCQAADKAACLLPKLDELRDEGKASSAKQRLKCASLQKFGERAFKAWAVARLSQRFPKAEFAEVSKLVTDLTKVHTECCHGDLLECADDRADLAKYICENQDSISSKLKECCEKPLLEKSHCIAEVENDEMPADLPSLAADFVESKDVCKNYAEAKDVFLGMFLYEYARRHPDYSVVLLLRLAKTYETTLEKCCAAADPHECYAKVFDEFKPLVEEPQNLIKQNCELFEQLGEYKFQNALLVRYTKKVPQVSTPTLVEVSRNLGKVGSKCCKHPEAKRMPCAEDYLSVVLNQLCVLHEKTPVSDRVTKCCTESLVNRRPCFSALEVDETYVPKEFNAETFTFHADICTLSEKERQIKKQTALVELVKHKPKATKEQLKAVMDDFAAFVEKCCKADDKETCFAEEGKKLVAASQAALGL
Description: Whole blood was taken from a healthy human volunteer (EDTA collection tube), the plasma was separated from the red blood cells by spinning it down for 3 minutes at 3000 RPM. The plasma was then used directly, within 2 hours of the blood donation. 360 μL of the appropriate plasma was used for each binding experiment.
(§2) All binding experiments were carried out in triplicate. The plasma was incubated at 37° C. using an Eppendorf Thermomixer C. After 30 minutes incubation 40 μL of the appropriate albumin-binding auristatin-Sulf07 derivative was dissolved in its reconstitution solution and added to the plasma. Samples (40 μL) were taken after 15 seconds, 2 minutes, 4 minutes, 8 minutes and 15 minutes (5 samples).
(§3) The samples were immediately added to 160 μL of acetonitrile (containing 4 μg/mL of 'MMAE as an internal standard) and vortexed for 1 minute.
(§4) The solutions were pipetted into an Impact plasma precipitation plate (shaken for 60 seconds) and filtered by vacuum onto a 96 well plate. Remaining drug was determined by LCMS quantification (method 5, 30 μL injection) using MRM MS2 negative mode (multiple reaction monitoring). Parent ions: auristatin F (Mass-744.8), AE-Keto-Sulf07 (Mass-1135.1) and AE-Ester-Sulf07 (Mass-1283.2). Percentage of binding was determined by comparing the AUC for AE-Keto-Sulf07 and AE-Ester-Sulf07 to calibration curves generated by LCMS for each compound.

albumin in rat plasma = target: T2, albumin in rat plasma (Rattus norvegicus, UniProt P02770); experiment: Binding kinetics to albumin in rat plasma; format: in vitro ADME, Sprague Dawley rat; conditions: 37° C.
T2 construct: CD1 murine plasma and Sprague Dawley rat plasma were removed from −80° C. storage; from tissue; host or cells: Sprague Dawley rat plasma (frozen, thawed, filtered)
T2 sequence (P02770 25-608): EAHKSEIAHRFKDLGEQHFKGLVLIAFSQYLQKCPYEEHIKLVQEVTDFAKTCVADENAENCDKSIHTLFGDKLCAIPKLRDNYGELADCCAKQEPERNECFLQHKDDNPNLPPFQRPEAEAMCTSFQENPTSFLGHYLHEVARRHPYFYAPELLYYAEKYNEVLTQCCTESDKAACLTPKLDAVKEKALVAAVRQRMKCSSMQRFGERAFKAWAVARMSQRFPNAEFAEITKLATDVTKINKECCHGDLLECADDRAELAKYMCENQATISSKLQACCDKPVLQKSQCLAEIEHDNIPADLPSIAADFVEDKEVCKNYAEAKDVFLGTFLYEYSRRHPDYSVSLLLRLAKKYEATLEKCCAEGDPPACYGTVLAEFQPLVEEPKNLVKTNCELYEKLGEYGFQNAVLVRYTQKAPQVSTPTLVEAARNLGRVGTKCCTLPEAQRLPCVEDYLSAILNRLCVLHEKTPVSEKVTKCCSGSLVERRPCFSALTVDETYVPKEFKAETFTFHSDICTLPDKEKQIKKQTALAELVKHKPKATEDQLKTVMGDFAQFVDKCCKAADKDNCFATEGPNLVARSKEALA
Description: CD1 murine plasma and Sprague Dawley rat plasma were removed from −80° C. storage and allowed to reach room temperature. The thawed plasma was spun down at 13.6 kRPM for 60 seconds, the supernatant was filtered through a filter needle (5 μm) and subsequently through a 0.45 μm CA membrane.
as §2, §3, §4

[2] = system: panel of 6 selected human cancer cell lines (LXFL 1674L, SW-620, CAL-27, RKO, MDA-MB-468, SK-OV-3); experiment: IC50 determination in a panel of tumor cell lines (CellTiter-Blue Cell Viability assay); format: cell-based; conditions: geometric mean over six cell lines, 96 h treatment; read-out: Geometric mean IC50
Description: Samples were provided to Charles River Discovery Research Services Germany GmbH as frozen stock solutions in pharmaceutical grade DMSO (Sigma-Aldrich, Taufkirchen, Germany). On each day of the experiment, a frozen aliquot of stock solution was thawed. Subsequent serial dilutions were realized with complete RPMI 1640 cell culture medium using an intermediate dilution plate. 10 μL taken from the intermediate dilution plate were then transferred to 140 μL/well of the cell culture plate. Cells were treated with the test compounds at 10 concentrations in triplicate in half-log steps from 0.003 nM to 100 nM for a period of 96 h.
The compounds were tested in a panel of 6 selected human cancer cell lines by using CellTiter-Blue® Cell Viability assay (Promega, Mannheim, Germany). IC values are reported as absolute IC50 values, obtained for a test compound as the geometric mean of IC50 values over all cell lines tested.
The cell lines used were LXFL 1674L (established from patient-derived xenograft at Charles River Discovery Research Services Germany GmbH), SW-620 (kindly provided by the NCI, Bethesda, Md., USA), CAL-27 (purchased from DSMZ, Deutsche Sammlung von Mikroorganismen und Zellkulturen, Braunschweig, Germany), RKO, MDA-MB-468, and SK-OV-3 (from ATCC, American Type Culture Collection, Rockville, Md., USA). Authenticity of all cell lines was proven at the DSMZ by STR (short tandem repeat) analysis, a PCR based DNA-fingerprinting methodology. Cell lines were routinely passaged once or twice weekly and maintained in culture for up to 20 passages. Cells were grown at 37° C. in a humidified atmosphere with 5% CO2 in RPMI 1640 medium (25 mM HEPES, with L-glutamine, Biochrom, Berlin, Germany) supplemented with 10% (v/v) fetal calf serum (Sigma-Aldrich, Taufkirchen, Germany) and 0.1 mg/mL gentamicin (Life Technologies, Karlsruhe, Germany). The CellTiter-Blue® Cell Viability Assay was used according to manufacturer's instructions. Briefly, cells were harvested from exponential phase cultures, counted and plated in 96-well flat-bottom microtiter plates at a cell density of 4,000-10,000 cells/well depending on the cell line's growth rate. After a 24 h recovery period to allow the cells to resume exponential growth, 10 μL of culture medium (six control wells/plate) or of culture medium with test compound were added. The compounds were applied at 10 concentrations in triplicate in half-log increments up to 100 nM and cells were treated continuously for 96 h. […] Following an incubation period of up to 4 h, fluorescence (FU) was measured by using the Enspire Multimode Plate Reader (excitation λ=531 nm, emission λ=615 nm). IC50 values were determined with GraphPad Prism bioanalytic software (San Diego, Calif., USA).

Compound: 2-(2-(1-(4-(((1S,2R)-2-((2R,3R)-3-((S)-1-((3R,4R,5S)-4-((S)-2-((R)-2-(dimethylamino)-3-methylbutanamido)-N,3-dimethylbutanamido)-3-methoxy-5-methylheptanoyl)pyrrolidin-2-yl)-3-methoxy-2-methylpropanamido)-1-phenylpropoxy)carbonyl)phenyl)ethylidene)hydrazine-1-carbonyl)-5-(6-(2,5-dioxo-2,5-dihydro-1H-pyrrol-1-yl)hexanamido)benzenesulfonic acid [AE-Ester-Sulf07]
- stability of the reconstituted drug (maleimide hydrolysis and loss of API) [1]: more stable than AE-Ester-EMCH
- maleimide hydrolyzed [1]: 2.5%
- albumin binding in plasma (albumin in human plasma): very rapid
- albumin binding in plasma (albumin in rat plasma): very rapid

Compound: CC[C@H](C)[C@@H]([C@@H](CC(=O)N1CCC[C@H]1[C@H](OC)[C@@H](C)C(=O)N[C@H](C)C(=NNC(=O)c1ccc(NC(=O)CCCCCN2C(=O)C=CC2=O)cc1S(=O)(=O)O)c1ccccc1)OC)N(C)C(=O)[C@@H](NC(=O)[C@H](C(C)C)N(C)C)C(C)C [AE-Keto-Sulf07, 2-(2-((R)-2-((2R,3R)-3-((S)-1-((3R,4S,5S)-4-((S)-2-((S)-2-(dimethylamino)-3-methylbutanamido)-N,3-dimethylbutanamido)-3-methoxy-5-methylheptanoyl)pyrrolidin-2-yl)-3-methoxy-2-methylpropanamido)-1-phenylpropylidene)hydrazine-1-carbonyl)-5-(6-(2,5-dioxo-2,5-dihydro-1H-pyrrol-1-yl)hexanamido)benzenesulfonic acid]
- stability of the reconstituted drug (maleimide hydrolysis and loss of API) [1]: more stable than AE-Keto-EMCH
- maleimide hydrolyzed [1]: 2.2%
- albumin binding in plasma (albumin in human plasma): very rapid
- albumin binding in plasma (albumin in rat plasma): very rapid

Compound: CC[C@H](C)[C@@H]([C@@H](CC(=O)N1CCC[C@H]1[C@H](OC)[C@@H](C)C(=O)N[C@H](C)[C@@H](O)c1ccccc1)OC)N(C)C(=O)[C@@H](NC(=O)[C@H](C(C)C)N(C)C)C(C)C [auristatin E]
- IC50 [2]: 0.13 nM

— US11377473B2, “Albumin-binding prodrugs of auristatin E derivatives” (priority 2017, dated 2022)
